Laboratory results published in paper PMC6128854 (Scientific Reports, 2018).
Positions of bridges follow the written chain, without caps; N, C: chain ends. Non-standard residues stand in square brackets, D forms with d. Residues, ends and D or L forms follow the SMILES beside them. Hyp = O=C(O)[C@@H]1C[C@@H](O)CN1

Key:
[1] = biological target: N-type calcium channel currents (Cav2.2) in rDRG neurons (Rattus norvegicus, UniProt Q02294); test: cell-based; conditions: SEM
endogenous human Cav1.3 = endogenous human Cav1.3 (Homo sapiens, UniProt Q01668)
endogenous human Cav3.1 = endogenous human Cav3.1 (Homo sapiens, UniProt O43497)
endogenous human Cav3.1, sequence (O43497 whole entry): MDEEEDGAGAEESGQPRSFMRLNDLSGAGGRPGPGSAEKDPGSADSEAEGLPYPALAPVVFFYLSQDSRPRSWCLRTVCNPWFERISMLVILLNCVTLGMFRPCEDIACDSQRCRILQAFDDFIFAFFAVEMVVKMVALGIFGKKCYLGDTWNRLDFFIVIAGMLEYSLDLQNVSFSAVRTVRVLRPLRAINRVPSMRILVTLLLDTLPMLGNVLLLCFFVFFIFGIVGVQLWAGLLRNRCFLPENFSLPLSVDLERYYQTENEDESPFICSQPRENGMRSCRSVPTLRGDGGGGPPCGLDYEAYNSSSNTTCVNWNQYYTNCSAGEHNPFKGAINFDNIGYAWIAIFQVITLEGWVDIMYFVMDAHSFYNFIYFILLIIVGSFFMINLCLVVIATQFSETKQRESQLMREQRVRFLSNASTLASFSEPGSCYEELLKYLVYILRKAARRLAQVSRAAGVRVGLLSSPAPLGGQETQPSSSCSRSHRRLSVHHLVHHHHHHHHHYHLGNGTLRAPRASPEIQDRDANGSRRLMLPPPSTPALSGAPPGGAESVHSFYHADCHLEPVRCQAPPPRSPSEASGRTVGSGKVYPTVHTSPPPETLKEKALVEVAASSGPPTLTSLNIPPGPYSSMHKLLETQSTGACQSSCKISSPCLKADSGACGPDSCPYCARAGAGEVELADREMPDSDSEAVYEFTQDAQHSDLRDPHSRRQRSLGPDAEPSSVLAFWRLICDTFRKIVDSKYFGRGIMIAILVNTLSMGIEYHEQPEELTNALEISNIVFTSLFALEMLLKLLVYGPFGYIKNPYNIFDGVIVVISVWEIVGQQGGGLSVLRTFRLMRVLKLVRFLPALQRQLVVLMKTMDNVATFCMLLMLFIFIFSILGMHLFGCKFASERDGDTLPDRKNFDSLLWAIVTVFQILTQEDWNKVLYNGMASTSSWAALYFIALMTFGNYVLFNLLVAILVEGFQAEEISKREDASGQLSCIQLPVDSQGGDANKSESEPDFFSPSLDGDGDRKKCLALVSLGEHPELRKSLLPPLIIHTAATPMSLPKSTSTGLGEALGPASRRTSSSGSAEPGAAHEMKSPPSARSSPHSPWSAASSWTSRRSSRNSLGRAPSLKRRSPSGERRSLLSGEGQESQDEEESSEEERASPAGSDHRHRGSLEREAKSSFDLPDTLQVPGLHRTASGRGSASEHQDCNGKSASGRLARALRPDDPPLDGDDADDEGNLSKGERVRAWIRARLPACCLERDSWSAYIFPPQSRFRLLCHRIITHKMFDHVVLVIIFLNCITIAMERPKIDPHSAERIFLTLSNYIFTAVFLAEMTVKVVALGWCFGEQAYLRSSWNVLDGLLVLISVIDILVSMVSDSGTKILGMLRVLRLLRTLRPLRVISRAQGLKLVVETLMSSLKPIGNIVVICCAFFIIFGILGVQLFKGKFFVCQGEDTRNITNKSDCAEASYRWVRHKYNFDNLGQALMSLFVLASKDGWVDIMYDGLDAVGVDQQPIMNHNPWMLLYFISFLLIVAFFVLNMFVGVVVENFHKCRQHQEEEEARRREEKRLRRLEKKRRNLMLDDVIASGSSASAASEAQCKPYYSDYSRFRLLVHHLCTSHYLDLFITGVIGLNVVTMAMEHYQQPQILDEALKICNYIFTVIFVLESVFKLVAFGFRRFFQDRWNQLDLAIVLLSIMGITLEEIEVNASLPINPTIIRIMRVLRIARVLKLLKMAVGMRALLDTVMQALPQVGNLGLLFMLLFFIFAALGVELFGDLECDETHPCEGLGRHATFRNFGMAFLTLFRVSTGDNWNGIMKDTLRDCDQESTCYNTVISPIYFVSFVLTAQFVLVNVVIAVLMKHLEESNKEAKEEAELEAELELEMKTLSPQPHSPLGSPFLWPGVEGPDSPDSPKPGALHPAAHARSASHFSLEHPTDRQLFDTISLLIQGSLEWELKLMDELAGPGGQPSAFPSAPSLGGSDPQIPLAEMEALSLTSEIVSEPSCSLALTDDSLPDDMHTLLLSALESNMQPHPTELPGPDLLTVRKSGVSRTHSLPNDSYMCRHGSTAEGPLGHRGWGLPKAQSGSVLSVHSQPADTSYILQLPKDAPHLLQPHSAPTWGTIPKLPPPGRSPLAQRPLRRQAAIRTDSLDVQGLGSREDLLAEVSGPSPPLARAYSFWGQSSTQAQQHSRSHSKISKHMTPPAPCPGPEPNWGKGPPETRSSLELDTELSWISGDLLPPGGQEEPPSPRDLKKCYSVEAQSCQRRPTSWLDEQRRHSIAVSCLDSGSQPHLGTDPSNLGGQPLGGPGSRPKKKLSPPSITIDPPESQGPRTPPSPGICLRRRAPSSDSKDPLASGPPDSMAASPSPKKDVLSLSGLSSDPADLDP

side effects in rats = conditions: rat, in vivo

N-type calcium channel currents (Cav2.2) in rDRG neurons, sequence (Q02294 whole entry, looked up): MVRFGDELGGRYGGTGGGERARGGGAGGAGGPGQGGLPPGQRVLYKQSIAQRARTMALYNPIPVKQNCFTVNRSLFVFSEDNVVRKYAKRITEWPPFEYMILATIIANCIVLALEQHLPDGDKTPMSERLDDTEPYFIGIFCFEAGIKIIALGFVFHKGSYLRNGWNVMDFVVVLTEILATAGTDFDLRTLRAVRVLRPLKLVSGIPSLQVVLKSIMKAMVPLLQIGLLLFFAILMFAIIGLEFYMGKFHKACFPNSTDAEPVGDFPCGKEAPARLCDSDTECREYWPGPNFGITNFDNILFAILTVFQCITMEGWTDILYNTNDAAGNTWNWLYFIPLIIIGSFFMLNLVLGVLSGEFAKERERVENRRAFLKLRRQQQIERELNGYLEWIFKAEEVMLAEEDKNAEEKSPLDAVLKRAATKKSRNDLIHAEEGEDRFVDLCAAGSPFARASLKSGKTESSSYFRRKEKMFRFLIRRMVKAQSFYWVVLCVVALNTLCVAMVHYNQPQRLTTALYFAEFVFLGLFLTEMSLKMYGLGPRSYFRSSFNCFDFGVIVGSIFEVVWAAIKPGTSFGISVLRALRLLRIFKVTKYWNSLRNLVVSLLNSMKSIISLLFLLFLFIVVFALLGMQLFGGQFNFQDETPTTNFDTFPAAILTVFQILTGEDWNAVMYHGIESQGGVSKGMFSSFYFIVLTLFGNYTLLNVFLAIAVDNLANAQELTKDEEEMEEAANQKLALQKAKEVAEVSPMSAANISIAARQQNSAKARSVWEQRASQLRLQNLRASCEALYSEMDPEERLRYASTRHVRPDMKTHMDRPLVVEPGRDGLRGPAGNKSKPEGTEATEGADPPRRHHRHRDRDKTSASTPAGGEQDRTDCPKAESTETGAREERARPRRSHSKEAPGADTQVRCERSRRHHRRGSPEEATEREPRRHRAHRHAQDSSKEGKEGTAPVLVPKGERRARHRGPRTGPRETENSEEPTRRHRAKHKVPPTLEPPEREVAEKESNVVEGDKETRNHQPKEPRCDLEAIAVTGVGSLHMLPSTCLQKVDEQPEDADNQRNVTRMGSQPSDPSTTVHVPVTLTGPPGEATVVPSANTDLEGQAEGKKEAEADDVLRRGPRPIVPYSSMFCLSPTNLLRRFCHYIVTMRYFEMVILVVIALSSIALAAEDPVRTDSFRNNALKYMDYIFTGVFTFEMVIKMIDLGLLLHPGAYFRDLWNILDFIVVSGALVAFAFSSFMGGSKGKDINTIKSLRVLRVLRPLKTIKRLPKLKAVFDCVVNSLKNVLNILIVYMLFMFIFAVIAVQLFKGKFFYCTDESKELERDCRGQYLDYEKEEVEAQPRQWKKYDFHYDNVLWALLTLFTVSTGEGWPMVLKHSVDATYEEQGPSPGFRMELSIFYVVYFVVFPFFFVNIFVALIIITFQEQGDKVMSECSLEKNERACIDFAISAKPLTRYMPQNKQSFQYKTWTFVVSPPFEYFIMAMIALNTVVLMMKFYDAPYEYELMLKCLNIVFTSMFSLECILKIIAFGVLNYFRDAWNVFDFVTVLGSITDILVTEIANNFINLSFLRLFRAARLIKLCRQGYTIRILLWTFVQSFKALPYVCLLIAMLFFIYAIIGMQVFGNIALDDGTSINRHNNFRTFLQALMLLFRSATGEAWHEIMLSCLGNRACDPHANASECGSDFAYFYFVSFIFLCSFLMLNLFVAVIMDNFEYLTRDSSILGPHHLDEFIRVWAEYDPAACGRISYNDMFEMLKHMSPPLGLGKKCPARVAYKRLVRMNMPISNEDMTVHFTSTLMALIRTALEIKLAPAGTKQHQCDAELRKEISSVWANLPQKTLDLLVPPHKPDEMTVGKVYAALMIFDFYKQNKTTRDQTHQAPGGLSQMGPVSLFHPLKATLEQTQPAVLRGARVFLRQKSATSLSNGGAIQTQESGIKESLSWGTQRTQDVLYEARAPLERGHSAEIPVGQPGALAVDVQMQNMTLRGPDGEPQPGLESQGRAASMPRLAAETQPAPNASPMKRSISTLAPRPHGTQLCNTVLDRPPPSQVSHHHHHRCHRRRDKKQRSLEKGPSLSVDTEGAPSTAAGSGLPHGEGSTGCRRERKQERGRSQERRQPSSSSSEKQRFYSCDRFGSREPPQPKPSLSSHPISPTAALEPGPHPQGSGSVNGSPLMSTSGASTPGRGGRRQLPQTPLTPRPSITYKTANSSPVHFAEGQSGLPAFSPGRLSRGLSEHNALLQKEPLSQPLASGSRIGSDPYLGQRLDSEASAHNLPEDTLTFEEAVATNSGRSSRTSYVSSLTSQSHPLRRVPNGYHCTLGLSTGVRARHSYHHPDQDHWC

CC[C@H](C)[C@@H]1NC(=O)[C@@H]2CSSC[C@@H]3NC(=O)[C@H](CCCCN)NC(=O)[C@H](CO)NC(=O)CNC(=O)[C@@H]4C[C@@H](O)CN4C(=O)[C@@H]4CCCN4C(=O)[C@H](CCCCN)NC(=O)[C@@H](N)CSSC[C@H](NC(=O)[C@H](CSSC[C@@H](C(=O)N[C@@H](CCCNC(=N)N)C(=O)N[C@@H](CCCCN)C(=O)N[C@@H](Cc4ccc(O)cc4)C(=O)N[C@@H](Cc4ccc(O)cc4)C(=O)N[C@@H](CC(N)=O)C(=O)O)NC(=O)[C@H](CCCNC(=N)N)NC(=O)[C@H](CCCCN)NC(=O)[C@H]([C@@H](C)O)NC(=O)[C@H](Cc4ccc(O)cc4)NC(=O)[C@H](CO)NC1=O)NC(=O)[C@H](CC(=O)O)NC(=O)[C@H](CCCNC(=N)N)NC(=O)[C@H](CCSC)NC(=O)[C@H](CO)NC(=O)[C@@H]1C[C@@H](O)CN1C(=O)[C@H](CO)NC3=O)C(=O)N[C@@H]([C@@H](C)O)C(=O)N[C@@H]([C@@H](C)O)C(=O)N2 [MoVIA] (H-CKP[Hyp]GSKCS[Hyp]SMRDCCTTCISYTKRCRKYYN-OH; disulfide 1-16, 8-19, 15-26)
IC50 [1]: 80 ± 10 nM
activity at endogenous human Cav1.3 (endogenous human Cav1.3): inactive
activity at endogenous human Cav3.1 (endogenous human Cav3.1): inactive

CC[C@H](C)[C@@H]1NC(=O)[C@@H]2CSSC[C@@H]3NC(=O)[C@H](CCCCN)NC(=O)[C@H](CO)NC(=O)CNC(=O)[C@@H]4C[C@@H](O)CN4C(=O)[C@@H]4CCCN4C(=O)[C@H](CCCCN)NC(=O)[C@@H](N)CSSC[C@H](NC(=O)[C@H](CSSC[C@@H](C(=O)N[C@@H](CCCNC(=N)N)C(=O)N[C@@H](CCCCN)C(=O)N[C@@H](Cc4ccc(O)cc4)C(=O)N[C@@H](Cc4ccc(O)cc4)C(=O)O)NC(=O)[C@H](CCCNC(=N)N)NC(=O)[C@H](CCCCN)NC(=O)[C@H]([C@@H](C)O)NC(=O)[C@H](Cc4ccc(O)cc4)NC(=O)[C@H](CO)NC1=O)NC(=O)[C@H](CC(=O)O)NC(=O)[C@H](CCCNC(=N)N)NC(=O)[C@H](CCSC)NC(=O)[C@H](CO)NC(=O)[C@@H]1C[C@@H](O)CN1C(=O)[C@H](CO)NC3=O)C(=O)N[C@@H]([C@@H](C)O)C(=O)N[C@@H]([C@@H](C)O)C(=O)N2 [MoVIB] (H-CKP[Hyp]GSKCS[Hyp]SMRDCCTTCISYTKRCRKYY-OH; disulfide 1-16, 8-19, 15-26)
IC50 [1]: 180 ± 30 nM
duration of side effects (side effects in rats): up to 4 h
therapeutic index (ratio of ED50 visual side effect score to ED50 mechanical PWT) (side effects in rats): 2.2
ED50 for visual side effect score (side effects in rats; SEM): 0.09 ± 0.05 nmol
activity at endogenous human Cav1.3 (endogenous human Cav1.3): inactive
activity at endogenous human Cav3.1 (endogenous human Cav3.1): inactive
